Experimental data reported in BindingDB's records for doi:10.1021/jm980035y (Cephalon, 1998).
Square brackets hold non-standard residues; d marks the D form. Peptide text beside a SMILES is read from it. * marks the point of attachment. Bn = c1ccc(C*)cc1; Ms = CS(=O)(=O)*

Biological target: Calpain-2 catalytic subunit (Sus scrofa)
Experiment: Inhibitory activity against Calpain-II receptor in porcine kidney

Ki [nM] | SMILES
5 | CS(=O)(=O)N[C@H](COCc1ccccc1)C(=O)N[C@H](C=O)Cc1ccc(OCc2ccccc2)cc1 [(R)-3-Benzyloxy-N-[(S)-1-(4-benzyloxy-benzyl)-2-oxo-ethyl]-2-methanesulfonylamino-propionamide] (Ms-[dS](Bn)-Tyr(Bn)-aldehyde)
7 | CC(OCc1ccccc1)[C@@H](NS(C)(=O)=O)C(=O)N[C@H](C=O)Cc1ccccc1 (stereo partly drawn) [(R)-N-((S)-1-Benzyl-2-oxo-ethyl)-3-benzyloxy-2-methanesulfonylamino-butyramide]
17 | CS(=O)(=O)N[C@H](COCc1ccccc1)C(=O)N[C@H](C=O)CCCCNS(=O)(=O)c1ccccc1 [(R)-N-((S)-5-Benzenesulfonylamino-1-formyl-pentyl)-3-benzyloxy-2-methanesulfonylamino-propionamide]
7 | CS(=O)(=O)N[C@H](CSCc1ccccc1)C(=O)N[C@H](C=O)Cc1ccccc1 [(S)-N-((S)-1-Benzyl-2-oxo-ethyl)-3-benzylsulfanyl-2-methanesulfonylamino-propionamide] (Ms-[dC](Bn)-Phe-aldehyde)
